Test results reported in patent publication US20210255193A1, “LYSINE REACTIVE PROBES AND USES THEREOF” (The Scripps Research Institute, priority 2017, published 2021).

Columns and labels:
[1] = molecular target: T1, PLIN3 Perilipin-3 (Homo sapiens, UniProt O60664); assay: competitive isoTOP-ABPP; type: binding; design: key to isoTOP-ABPP reactivity ratio at lysine O60664_K257 / isoTOP-ABPP reactivity ratio at lysine O60664_K140: R = MS1 peak area ratio, DMSO (heavy) / compound-treated (light); capped at 20; details: for R value (DMSO/fragment) for probe 1 labeling / isoTOP-ABPP reactivity ratio at lysine O60664_K140 / isoTOP-ABPP reactivity ratio at lysine O60664_K257 / isoTOP-ABPP ratio (R) at liganded lysine O60664_K140 / isoTOP-ABPP ratio (R) at liganded lysine O60664_K257: 50 uM, in vitro; for R value (DMSO/fragment) for probe 1 labeling / isoTOP-ABPP reactivity ratio at lysine O60664_K140 / isoTOP-ABPP reactivity ratio at lysine O60664_K257: 231 sol; for isoTOP-ABPP ratio (R) at liganded lysine O60664_K140 / isoTOP-ABPP ratio (R) at liganded lysine O60664_K257: sol, 231
T1 construct: isoTOP-ABPP experiments performed in cell lysates (in vitro); endogenous in cells; host or cells: MDA-MB-231 soluble lysate
T1 sequence (O60664 1-434): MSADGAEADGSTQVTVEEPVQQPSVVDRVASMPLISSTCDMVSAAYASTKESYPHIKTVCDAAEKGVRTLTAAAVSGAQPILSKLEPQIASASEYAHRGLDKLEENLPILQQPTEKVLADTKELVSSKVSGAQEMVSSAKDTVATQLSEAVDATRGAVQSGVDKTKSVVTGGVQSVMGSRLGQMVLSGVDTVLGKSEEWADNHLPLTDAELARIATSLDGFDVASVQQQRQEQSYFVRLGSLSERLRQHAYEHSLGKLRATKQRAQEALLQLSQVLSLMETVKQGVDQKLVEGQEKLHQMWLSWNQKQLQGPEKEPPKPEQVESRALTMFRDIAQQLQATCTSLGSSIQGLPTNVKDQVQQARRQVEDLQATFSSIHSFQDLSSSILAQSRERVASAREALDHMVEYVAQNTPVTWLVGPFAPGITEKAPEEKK
Procedure: In vitro covalent fragment treatment for isoTOP-ABPP. All compounds were made up as solutions in DMSO (100×) and were used at a final concentration of 50 μM for activated esters and 100 μM for guanidinylating agents. For each profiling sample, 0.5 ml of lysate was treated with 5 μl of the 100× compound stock solution or 5 μl of DMSO. Samples were treated with activated esters for
STP-alkyne labeling and click chemistry. For concentration-dependent reactivity measurements by isoTOP-ABPP, 0.5 ml proteome aliquots were treated at ambient temperature with 1 mM STP-alkyne 1 (5 μl of 100 mM stock in DMSO) and 0.1 mM STP alkyne 1 (5 μl of 10 mM stock in DMSO), respectively. For competitive isoTOP-ABPP, after in vitro fragment treatment (detailed above), the samples were labeled for 1 h at ambient temperature with 0.1 mM STP-alkyne 1 (5 μl of 10 mM stock in DMSO). Samples were conjugated by copper-mediated azide-alkyne cycloaddition (CuAAC) to either the light (1 mM STP-alkyne or fragment treated) or heavy (0.1 mM STP-alkyne or DMSO treated) TEV tags (10 μl of 5 mM stocks in DMSO, final concentration=100 μM) using tris(2-carboxyethyl)phosphine hydrochloride
R value calculation and processing. The ratios of light and heavy MS1 peaks for each unique peptide were quantified with a CIMAGE software using default parameters (3 MS1 acquisitions per peak and signal to noise threshold set to 2.5). For reactivity measurements by isoTOP-ABPP, the R value was calculated from the ratio of MS1 peak areas, comparing the 1 mM STP alkyne sample (light TEV tag) with the 0.1 mM STP alkyne sample (heavy TEV tag). For competitive isoTOP-ABPP, the R value was calculated from the ratio of MS1 peak areas, comparing the DMSO treated sample (heavy TEV tag) with the compound treated sample (light TEV tag). […] Ratios for unique peptide entries are calculated for each experiment; overlapping peptides with the same modified lysine (for example, different charge states, MudPIT chromatographic steps or tryptic termini) are grouped together and the median ratio is reported as the final ratio (R). The peptide ratios reported by CIMAGE were further filtered to ensure the removal or correction of low-quality ratios in each individual data set. The quality filters applied were the following: removal of half tryptic peptides; for ratios with high standard deviations from the median (90% of the median or above) the lowest ratio was taken instead of the median; removal of peptides with R=20 and only a single MS2 event triggered during the elution of the parent ion; manual annotation of all the peptides with ratios of 20, removing any peptides with low quality elution profiles that remained after the previous curation steps (only done for competitive isoTOP-ABPP).
Cross-data processing for fragment screening. For compound treated samples, biological replicates of the same condition were averaged, if the standard deviation was below 60% of the mean; otherwise, for lysines with at least one R value <4 for a particular compound, the lowest value of the ratio set was taken. For lysines, where all R values for a particular compound were ≥4, the average was reported. For peptides containing several possible modified lysines, the lysine with the highest number of quantification events was used for analysis and the remaining, redundant peptides were reported as alternative modification sites. Peptides included in the aggregate dataset (those used for further bioinformatics and statistical analyses) were required to have been quantified in 2 experiments for competitive isoTOP-ABPP. Lysines were categorized as liganded, if they had at least one ratio R≥4 (hit fragments). For liganded lysines with R=20 for all liganding events, lysines were required to have been quantified with R=20 in two separate experiments and were further required to have been quantified with R<20 in one additional experiment.

[2] = molecular target: T2, EEF1G Elongation factor 1-gamma (Homo sapiens, UniProt P26641); assay: competitive isoTOP-ABPP; type: binding; details: 50 uM, in vitro; for R value (DMSO/fragment) for probe 1 labeling: P26641_K227; for R value (DMSO/fragment) for probe 1 labeling / isoTOP-ABPP reactivity ratio at lysine P26641_K227: 231 sol; for isoTOP-ABPP ratio (R) at liganded lysine P26641_K227: sol, 231
T2 construct: isoTOP-ABPP experiments performed in cell lysates (in vitro); endogenous in cells; host or cells: soluble proteome of human cancer cell lines (MDA-MB-231; Ramos and Jurkat also prepared)
T2 sequence (P26641 whole entry, the tested form may be a part): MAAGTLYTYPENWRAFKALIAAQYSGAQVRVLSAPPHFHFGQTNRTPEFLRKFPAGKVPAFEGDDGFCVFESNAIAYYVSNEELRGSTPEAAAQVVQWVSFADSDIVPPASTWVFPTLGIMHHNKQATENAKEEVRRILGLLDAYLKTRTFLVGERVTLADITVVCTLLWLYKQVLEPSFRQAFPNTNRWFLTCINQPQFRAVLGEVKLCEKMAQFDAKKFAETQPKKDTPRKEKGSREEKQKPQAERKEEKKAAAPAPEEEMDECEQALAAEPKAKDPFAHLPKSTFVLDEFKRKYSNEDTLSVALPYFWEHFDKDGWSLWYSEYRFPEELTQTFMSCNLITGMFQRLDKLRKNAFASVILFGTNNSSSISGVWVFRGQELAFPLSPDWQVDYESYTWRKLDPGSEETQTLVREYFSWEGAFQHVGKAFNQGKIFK
Summary of the method: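 Cell lysate treated in vitro with fragments (50 μM activated esters, 100 μM guanidinylating agents) or DMSO, labelled 1 h at ambient temperature with 0.1 mM STP-alkyne, CuAAC-tagged with light/heavy TEV tags, analysed by MS. R = DMSO/compound MS1 peak-area ratio; lysines with R≥4 called liganded.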

O=C(CCc1cn(-c2ccccc2)nc1-c1ccccc1)Oc1c(F)c(F)c(F)c(F)c1F [fragment 19, Pentafluorophenyl 3-(1,3-diphenyl-1H-pyrazol-4-yl)propanoate]
R value (DMSO/fragment) for probe 1 labeling ([1]; O60664_K140): 1.5
R value (DMSO/fragment) for probe 1 labeling ([1]; O60664_K257): 2.2

O=C(Oc1c(F)c(F)c(F)c(F)c1F)C(c1ccccc1)c1ccccc1 [fragment 20, Pentafluorophenyl 2,2-diphenylacetate]
R value (DMSO/fragment) for probe 1 labeling ([1]; O60664_K257): 2.5
R value (DMSO/fragment) for probe 1 labeling [2]: 0.9

O=C(Oc1c(F)c(F)c(F)c(F)c1F)c1cc(C(F)(F)F)cc(C(F)(F)F)c1 [fragment 21, Pentafluorophenyl 3,5-bis(trifluoromethyl)benzoate]
R value (DMSO/fragment) for probe 1 labeling ([1]; O60664_K257): 2.0
R value (DMSO/fragment) for probe 1 labeling [2]: 0.8

Cn1cc(CC(=O)Oc2c(F)c(F)c(F)c(F)c2F)c2ccccc21 [fragment 22, Pentafluorophenyl 2-(1-methyl-1H-indol-3-yl)acetate]
R value (DMSO/fragment) for probe 1 labeling ([1]; O60664_K257): 2.6

O=C(Oc1c(F)c(F)c(F)c(F)c1F)C1CCN(C(=O)OCc2ccccc2)CC1 [fragment 24, 1-Benzyl 4-(pentafluorophenyl) piperidine-1,4-dicarboxylate]
isoTOP-ABPP reactivity ratio at lysine O60664_K140 [1]: 1.7
isoTOP-ABPP reactivity ratio at lysine P26641_K227 [2]: 0.9

O=C(Oc1c(F)c(F)c(F)c(F)c1F)c1ccc2ccccc2n1 [fragment 25, Pentafluorophenyl quinoline-2-carboxylate]
isoTOP-ABPP reactivity ratio at lysine P26641_K227 [2]: 1.1

O=C(CCc1coc2cc(F)ccc2c1=O)Oc1c(F)c(F)c(F)c(F)c1F [fragment 26, Pentafluorophenyl 3-(7-fluoro-4-oxo-4H-chromen-3-yl)propanoate]
isoTOP-ABPP reactivity ratio at lysine O60664_K140 [1]: 1.2
isoTOP-ABPP reactivity ratio at lysine O60664_K257 [1]: 4.1
isoTOP-ABPP reactivity ratio at lysine P26641_K227 [2]: 0.8

O=C(CN1C(=O)c2ccccc2C1=O)Oc1c(F)c(F)c(F)c(F)c1F [fragment 27, Pentafluorophenyl 2-(1,3-dioxoisoindolin-2-yl)acetate]
isoTOP-ABPP reactivity ratio at lysine O60664_K140 [1]: 1.9
isoTOP-ABPP reactivity ratio at lysine O60664_K257 [1]: 1.8
isoTOP-ABPP reactivity ratio at lysine P26641_K227 [2]: 1.2

CCn1cc(C(=O)Oc2c(F)c(F)c(F)c(F)c2F)c(=O)c2ccc(C)nc21 [fragment 28, Pentafluorophenyl 1-ethyl-7-methyl-4-oxo-1,4-dihydro-1,8-naphthyridine-3-carboxylate]
isoTOP-ABPP reactivity ratio at lysine O60664_K140 [1]: 1.2
isoTOP-ABPP reactivity ratio at lysine O60664_K257 [1]: 1.1
isoTOP-ABPP reactivity ratio at lysine P26641_K227 [2]: 15.0

O=C(CCc1cn(-c2ccccc2)nc1-c1ccccc1)Oc1ccc([N+](=O)[O-])cc1[N+](=O)[O-] [fragment 29, 2,4-Dinitrophenyl 3-(1,3-diphenyl-1H-pyrazol-4-yl)propanoate]
isoTOP-ABPP reactivity ratio at lysine O60664_K140 [1]: 2.1
isoTOP-ABPP reactivity ratio at lysine O60664_K257 [1]: 3.5
isoTOP-ABPP reactivity ratio at lysine P26641_K227 [2]: 0.7

O=C(Oc1ccc([N+](=O)[O-])cc1[N+](=O)[O-])C(c1ccccc1)c1ccccc1 [fragment 30, 2,4-Dinitrophenyl 2,2-diphenylacetate]
isoTOP-ABPP reactivity ratio at lysine O60664_K140 [1]: 4.5
isoTOP-ABPP reactivity ratio at lysine O60664_K257 [1]: 2.9
isoTOP-ABPP reactivity ratio at lysine P26641_K227 [2]: 0.9

O=C(Oc1ccc([N+](=O)[O-])cc1[N+](=O)[O-])c1cc(C(F)(F)F)cc(C(F)(F)F)c1 [fragment 31, 2,4-Dinitrophenyl 3,5-bis(trifluoromethyl)benzoate]
isoTOP-ABPP reactivity ratio at lysine P26641_K227 [2]: 2.2

COc1cc(CCC(=O)Oc2ccc([N+](=O)[O-])cc2[N+](=O)[O-])cc(OC)c1OC [fragment 33, 2,4-Dinitrophenyl 3-(3,4,5-trimethoxyphenyl)propanoate]
isoTOP-ABPP reactivity ratio at lysine O60664_K140 [1]: 1.1
isoTOP-ABPP reactivity ratio at lysine O60664_K257 [1]: 2.2
isoTOP-ABPP reactivity ratio at lysine P26641_K227 [2]: 0.7

O=C(Oc1ccc([N+](=O)[O-])cc1[N+](=O)[O-])c1ccc2ccccc2n1 [fragment 35, 2,4-Dinitrophenyl quinoline-2-carboxylate]
isoTOP-ABPP ratio (R) at liganded lysine O60664_K140 [1]: 1.1
isoTOP-ABPP ratio (R) at liganded lysine O60664_K257 [1]: 1.2

O=C(CCc1coc2cc(F)ccc2c1=O)Oc1ccc([N+](=O)[O-])cc1[N+](=O)[O-] [fragment 36, 2,4-Dinitrophenyl 3-(7-fluoro-4-oxo-4H-chromen-3-yl)propanoate]
isoTOP-ABPP ratio (R) at liganded lysine O60664_K140 [1]: 1.5
isoTOP-ABPP ratio (R) at liganded lysine O60664_K257 [1]: 3.9

O=C(Oc1ccc([N+](=O)[O-])cc1[N+](=O)[O-])c1ccc(-c2ccccc2)cc1 [fragment 37, 2,4-Dinitrophenyl [1,1′-biphenyl]-4-carboxylate]
isoTOP-ABPP ratio (R) at liganded lysine O60664_K257 [1]: 3.5

O=C(Oc1ccc([N+](=O)[O-])cc1[N+](=O)[O-])c1ccc(Oc2ccccc2)cc1 [fragment 39, 2,4-Dinitrophenyl 4-phenoxybenzoate]
isoTOP-ABPP ratio (R) at liganded lysine O60664_K140 [1]: 2.0
isoTOP-ABPP ratio (R) at liganded lysine O60664_K257 [1]: 2.2

O=C(Oc1ccc([N+](=O)[O-])cc1[N+](=O)[O-])c1ccccc1Nc1cccc(C(F)(F)F)c1 [fragment 40, 2,4-Dinitrophenyl 2-((3-(trifluoromethyl)phenyl)amino)benzoate]
isoTOP-ABPP ratio (R) at liganded lysine O60664_K257 [1]: 1.6

CC(C)(C)OC(=O)NCCCC(=O)Oc1ccc([N+](=O)[O-])cc1[N+](=O)[O-] [fragment 41, 2,4-Dinitrophenyl 4-((tert-butoxycarbonyl)amino)butanoate]
isoTOP-ABPP ratio (R) at liganded lysine O60664_K140 [1]: 2.1
isoTOP-ABPP ratio (R) at liganded lysine P26641_K227 [2]: 0.8

O=C(Oc1ccc([N+](=O)[O-])cc1[N+](=O)[O-])C(c1ccccc1)(c1ccccc1)c1ccccc1 [fragment 42, 2,4-Dinitrophenyl 2,2,2-triphenylacetate]
isoTOP-ABPP ratio (R) at liganded lysine O60664_K140 [1]: 0.9
isoTOP-ABPP ratio (R) at liganded lysine O60664_K257 [1]: 0.9
isoTOP-ABPP ratio (R) at liganded lysine P26641_K227 [2]: 0.7

CC(=O)Oc1ccc([N+](=O)[O-])cc1[N+](=O)[O-] [fragment 43, 2,4-Dinitrophenyl acetate]
isoTOP-ABPP ratio (R) at liganded lysine P26641_K227 [2]: 2.3

O=C(Oc1c(F)c(F)cc(F)c1F)c1cc(C(F)(F)F)cc(C(F)(F)F)c1 [fragment 48, 2,3,5,6-Tetrafluorophenyl 3,5-bis(trifluoromethyl)benzoate]
isoTOP-ABPP ratio, lysine O60664_K140 ([1]; 50 uM_231_sol_in vitro): 1.3

COC(=O)NC(=NC(=O)OCC1c2ccccc2-c2ccccc21)n1cccn1 [fragment 49, N-Methoxycarbonyl-N′-9-fluorenylmethoxycarbonyl-pyrazole-1-carboxamidine]
isoTOP-ABPP ratio, lysine O60664_K140 ([1]; 100 uM_231_sol_in vitro): 3.0
